{"source": "patent US20030207843A1", "about": "“Treatment of drug-resistant human immunodeficiency virus infection” (priority 1999, published 2003)", "type_in_all_cases": "cell-based", "key": {"[1]": {"system": "panel of drug resistant HIV-1 viruses", "experiment": "p24 reduction assay, panel of drug resistant HIV-1 viruses (summary)", "conditions": "Human immunodeficiency virus 1, read-out: EC50 values (range over strains)", "quoted_text": "The μM concentration required to produce 50% inhibition of replication of the drug-resistant strain of HIV (EC50) was determined as shown in Table 1. Drug effects were measured by assaying p24 (a viral protein) in the culture medium."}, "[2]": {"system": "HIV-1LAI selected with PFA, passage 17 (W88G)", "experiment": "Susceptibility of virus selected in vitro with PFA, passage 17", "protocol": "(§1) Antiviral Susceptibility Assays. The antiviral activity of each compound was determined by inoculating MT-2 cells with HIV-1LAI at a multiplicity of infection (MOI) of 0.01 TCID50/cell, followed by incubation in the presence of three-fold serial drug dilutions (3 wells per dilution) (see Mellors, et. al., Antimicrob. Agents Chemother. 39:1087-1092). Five or seven days after infection, culture supernatants were harvested, lysed with 0.5% triton-X 100 and assayed for p24 antigen concentration using a commercial ELISA assay (DuPont, NEN Products, Wilmington, Del.). The antiviral activity of the compounds is expressed as the IC50, which is the concentration required to inhibit 50% of p24 antigen production. The fold-resistance of a test virus is calculated by dividing the IC50 of the test virus by the IC50 of the HIV-1LAI control virus.\nSelection of Resistant Viruses. […] Viral cytopathic effects (CPE) were monitored daily. […] The passaged virus was monitored regularly for a reduction in susceptibility to the compounds by determining the EC50 relative to unpassaged HIV-1LAI (Mellors, et. al., Antimicrob. Agents Chemother. 39:1087-1092). […]\nAs controls for the invention compound selections, HIV-1LAI was passaged in the presence and absence of unmodified PFA. […] None of the mutations selected by the invention compounds or free PFA were detected in control viruses passaged in the absence of drug."}, "HIV-1LAI S117T": {"system": "HIV-1LAI S117T", "experiment": "p24 reduction assay in MT-2 cells, S117T", "protocol": "(§2) Cells. MT-2 cells (AIDS Research and Reference Reagent Program, National Institute of Allergy and Infectious Diseases, National Institutes of Health) were maintained in RPMI 1640 supplemented with 10% fetal bovine serum (FBS; JRH Biosciences, Lenexa, Kans.), 10 mM HEPES buffer, 50 IU/ml penicillin and 50 μg/ml streptomycin.\nas §1\n(§3) Generation of Mutant Recombinant HIV-1. HIV-1 containing the desired mutations were generated by oligonucleotide directed mutagenesis (Altered Sites II, Promega) as previously described (Mellors, et. al., Molecular Pharm. 41:446-451). After mutagenesis, mutant RT was subcloned into the pxxHIV-1LAI cloning vector using the silent XmaI and XbaI restriction sites located at the 5′ and 3′ ends of RT. Clones were DNA sequenced to verify the presence of the desired mutation(s) and electroporated into MT-2 cells as described above to generate infectious mutant recombinant HIV-1.\n(§4) Mutant RT was generated via oligonucleotide-directed mutagenesis and ligated into the pXXHIV-1LAI cloning vector. Cloning was facilitated by the presence of two silent restriction sites at the 5′ and 3′ ends (Xma1 and Xba1, respectively) of pXXHIV-1LAI RT. Infectious mutant recombinant HIV-1 was generated by electroporating MT-2 cells with mutated pXXHIV-1LAI clones. The presence of the desired mutations was verified by DNA sequencing.\nDNA sequencing identified two mutations in RT: S117T and L214F.\n(§5) Recombinant viruses containing the mutations selected by invention compounds were also evaluated for their susceptibility to AZT, as shown in Table 8."}, "HIV-1LAI L214F": {"system": "HIV-1LAI L214F", "experiment": "p24 reduction assay in MT-2 cells, L214F", "conditions": "Table 8", "protocol": "as §2, §1\n(§6) Generation of Mutant Recombinant HIV-1. […]\nas §5"}, "HIV-1LAI M164I/4XAZT": {"system": "HIV-1LAI M164I/4XAZT", "experiment": "p24 reduction assay in MT-2 cells, M164I/4XAZT", "conditions": "Table 8", "protocol": "as §2, §1, §6, §5"}, "HIV-1LAI M164I": {"system": "HIV-1LAI M164I", "experiment": "p24 reduction assay in MT-2 cells, M164I", "conditions": "Table 8", "protocol": "as §2, §1, §6, §5"}, "HIV-1LAI M164I/L214F": {"system": "HIV-1LAI M164I/L214F", "experiment": "p24 reduction assay in MT-2 cells, M164I/L214F", "protocol": "as §2, §1, §3, §4\nDNA sequencing of the RT gene (amino acid (AA) 1 to 350) from MB-PFA resistant virus identified three mutations: V75L, M164I and L214F. Recombinant viruses encoding the V75L, M164I and L214F mutations were constructed and tested for susceptibility to MB-PFA.\nas §5"}, "HIV-1LAI W88G/L214F": {"system": "HIV-1LAI W88G/L214F", "experiment": "p24 reduction assay in MT-2 cells, W88G/L214F", "protocol": "as §2, §1, §3, §4\nEB-PFA resistant virus was selected a second time after 15 passages. This virus also contained the mutations W88G and L214F.\nas §5"}, "[3]": {"system": "HIV-1LAI selected with MB-PFA, passage 15", "experiment": "Susceptibility of virus selected in vitro with MB-PFA", "protocol": "as §1\nSelection of Resistant Viruses. Selections were initiated by inoculating 1.0×10^6 MT-2 cells at an MOI of 0.1 with plasmid derived HIV-1LAI which had been passaged as cell-free virus 10 times in MT-2 cells in the absence of compound (see Bazmi, et. al., Antimicrobial Agents and Chemotherapy 44:1783-1788). Cells were pretreated with drug for two hours prior to inoculation with virus. For each selection, the starting concentration was the IC50 of the compound, and the selective pressure (i.e. drug concentration) was doubled every three passages. Viral cytopathic effects (CPE) were monitored daily. At 2+CPE (≧2 syncitia per 100× field) cell free virus supernatant was harvested and used to initiate a new cycle of infection in fresh MT-2 cells. The passaged virus was monitored regularly for a reduction in susceptibility to the compounds by determining the EC50 relative to unpassaged HIV-1LAI (Mellors, et. al., Antimicrob. Agents Chemother. 39:1087-1092).\nGenetic Analyses. Virions were pelleted from culture supernatants by centrifugation at 25,000×g for 1 hour. Total RNA was extracted from the virus pellet using TRIZOL® Reagent (Gibco BRL, Grand Island, N.Y.) and resuspended in diethyl pyrocarbonate-treated sterile water. […]"}}, "note": "Several values for one entry are separate records, joined by “and”; a condition that tells them apart may be missing. Equal entries are not always repeated. Where two headings read alike, the source gives them in different places.", "data": [{"smiles": "O=C(O)P(=O)(O)O", "note": "[PFA, phosphonoformate, reference compound]", "values": [{"measurement": "EC50", "setting": "[1]", "value": "7600 to 37400", "unit": "nM"}, {"measurement": "EC50", "setting": "[2]; Human immunodeficiency virus 1, Table 6, passage 17 (W88G)", "value": 122000, "unit": "nM"}, {"measurement": "Fold resist.", "setting": "[2]; Table 6, passage 17, relative to passage 0", "value": "23 and 23.2"}, {"measurement": "Fold resistance", "setting": "HIV-1LAI S117T; {}", "value": 4.7, "unit": "fold"}]}, {"smiles": "Cc1cn([C@H]2C[C@H](N=[N+]=[N-])[C@@H](CO)O2)c(=O)[nH]c1=O", "note": "[AZT, 3′-Azido-3′-deoxythymidine]", "values": [{"measurement": "EC50", "setting": "HIV-1LAI L214F; Human immunodeficiency virus 1, MT2, L214F, read-out: AZT EC50", "value": "35 ± 33", "unit": "nM"}, {"measurement": "Fold resistance", "setting": "HIV-1LAI L214F; L214F relative to wild type virus", "value": 1.7}, {"measurement": "EC50", "setting": "HIV-1LAI M164I/4XAZT; Human immunodeficiency virus 1, MT2, M164I/4XAZT, read-out: AZT EC50", "value": "43 ± 22", "unit": "nM"}, {"measurement": "Fold resistance", "setting": "HIV-1LAI M164I/4XAZT; M164I/4XAZT relative to wild type virus", "value": 1.1}, {"measurement": "EC50", "setting": "HIV-1LAI M164I; Human immunodeficiency virus 1, MT2, M164I, read-out: AZT EC50", "value": "12 ± 4", "unit": "nM"}, {"measurement": "Fold resistance", "setting": "HIV-1LAI M164I; M164I relative to wild type virus", "value": 0.6}, {"measurement": "EC50", "setting": "HIV-1LAI M164I/L214F; Human immunodeficiency virus 1, MT2, Table 8, M164I/L214F, read-out: AZT EC50", "value": "8 ± 3", "unit": "nM"}, {"measurement": "Fold resistance", "setting": "HIV-1LAI M164I/L214F; Table 8, M164I/L214F relative to wild type virus", "value": 0.4}, {"measurement": "EC50", "setting": "HIV-1LAI W88G/L214F; Human immunodeficiency virus 1, MT2, Table 8, W88G/L214F, read-out: AZT EC50", "value": "15 ± 15", "unit": "nM"}, {"measurement": "Fold resistance", "setting": "HIV-1LAI W88G/L214F; Table 8, W88G/L214F relative to wild type virus", "value": 0.7}, {"measurement": "EC50", "setting": "HIV-1LAI S117T; Human immunodeficiency virus 1, MT2, Table 8, S117T, read-out: AZT EC50", "value": "17 ± 7", "unit": "nM"}, {"measurement": "Fold resistance", "setting": "HIV-1LAI S117T; Table 8, S117T relative to wild type virus", "value": 0.8}]}, {"smiles": "CCCCCCCCCCCCCCCCCCOC[C@H](COP(=O)(O)C(=O)O)OCC", "note": "[EB-PFA, 1-O-octadecyl-2-O-ethyl-sn-glycero-3-PFA]", "values": [{"measurement": "Fold resistance", "setting": "HIV-1LAI W88G/L214F; Example 6, recombinant virus W88G plus L214F", "value": 15.5, "unit": "fold"}, {"measurement": "EC50", "setting": "HIV-1LAI W88G/L214F; Example 6, recombinant virus W88G plus L214F, read-out: EC50", "value": 9100, "unit": "nM"}]}, {"smiles": "CCCCCCCCCCCCCCCCCCOC[C@H](COP(=O)(O)C(=O)O)OC", "note": "[MB-PFA, 1-O-octadecyl-2-O-methyl-sn-glycero-3-PFA]", "values": [{"measurement": "Fold resistance", "setting": "[3]; Example 6, repeated selection, after 15 passages (M164I and L214 mutations, not V75L)", "value": 31, "unit": "fold"}, {"measurement": "EC50", "setting": "[3]; Table 6, MB-PFA-selected virus, passage 15 (V75L, M164I, L214F)", "value": 2160, "unit": "nM"}, {"measurement": "Fold resist.", "setting": "[3]; Table 6, MB-PFA-selected virus, passage 15, relative to passage 0", "value": "27 and 30.9"}, {"measurement": "Fold resistance", "setting": "HIV-1LAI M164I/L214F; Example 6, recombinant virus with M164I and L214F", "value": 9.3, "unit": "fold"}, {"measurement": "EC50", "setting": "HIV-1LAI M164I/L214F; Example 6, recombinant virus with M164I and L214F, read-out: EC50", "value": 8100, "unit": "nM"}]}]}
